Here are results for three compounds from PMC4503722, “Novel Phenotypic Outcomes Identified for a Public Collection of Approved Drugs from a Publicly Accessible Panel of Assays” (PLoS ONE, 2015).

Data set [1] relates to DLD-1. The data set is described as follows: cells. Type of data set: cell-based. Conditions: Homo sapiens.
For data set [2], the system named is nuclear β-catenin in C2C12 cells. The data set is described as follows: cells. Type of data set: cell-based. Conditions: Mus musculus.
Data set [3] relates to HCT116. The data set is described as follows: cells. Type of data set: cell-based. To be noted: Homo sapiens.
The conditions of data set [4]: FAERS, ref [45], cited from earlier work; for Adjusted Z-Score: Drug A with vs without methotrexate; for # of Specific AE Occurrence With Drug A With Drug B: with methotrexate; for # of Specific AE Occurrence With Drug A Without Drug B: without methotrexate.
Data set [5] relates to INS-1E cells. Briefly: cells. The class given is cell-based, rat.
Data set [6] relates to HeLa cells. Briefly: cells. Type of data set: cell-based. To be noted: Homo sapiens, HeLa, read-out: CellCycle G2/M.
Data set [7] relates to SW480. Briefly: cells. The class given is cell-based. Conditions: Homo sapiens.
Data set [8] has as its system NCI-H716 cells. Briefly: cells. Type of data set: cell-based, Human. Conditions: Homo sapiens.
Data set [9] concerns HCT116 cells treated with a GSK3β inhibitor. Briefly: cells. To be noted: Homo sapiens. Type of data set: cell-based.
Data set [10] has as its system ECFC/ADSC co-culture cell nuclei number. Conditions: human.
Data set [11] has as its target T1, hJAK2 (Homo sapiens, UniProt O60674).
T1 construct: purchased Cerep (LANCE kinase assay platform, contract assay)
Briefly: Cerep LANCE kinase assay hJAK2 (S1 assay 33). The class given is biochemical. To be noted: kinase assay; read-out: JAK2. For orientation: Time-resolved FRET reads energy transfer from a long-lived donor to a nearby acceptor.

The subject of data set [12] is panel of 7 colon cancer cell lines. The data set is described as follows: KRAS/Wnt synthetic lethal module: selectivity ratios across the colon cancer cell line panel (sub-modules). Type of data set: cell-based.
Data set [13] addresses T2, hKDR (Homo sapiens, UniProt P35968).
T2 construct: purchased Cerep (LANCE kinase assay platform, contract assay)
Briefly: Cerep LANCE kinase assay hKDR (S1 assay 32). The class given is biochemical. Conditions: kinase assay; read-out: KDR.

The target in data set [14] is T3, hFLT3 (Homo sapiens, UniProt P36888).
T3 construct: purchased Cerep (LANCE kinase assay platform, contract assay)
The data set is described as follows: Cerep LANCE kinase assay hFLT3 (S1 assay 35). Type of data set: biochemical. Conditions: kinase assay; read-out: FLT3.

The target of data set [15] is T4, hp70S6K1 (RPS6KB1) (Homo sapiens, UniProt P23443).
T4 construct: purchased Cerep (LANCE kinase assay platform, contract assay)
Briefly: Cerep LANCE kinase assay hp70S6K1 (S1 assay 31). The class given is biochemical. To be noted: kinase assay; read-out: p70S6K1.

Data set [16] has as its system endothelial tube formation in co-cultures of ECFCs and ADSCs treated with VEGF. Briefly: cells. The class given is cell-based, human. Conditions: Homo sapiens.
Data set [17] concerns SNU-C1. The data set is described as follows: cells. Type of data set: cell-based. Conditions: Homo sapiens.
Data set [18] deals with HT-29. The data set is described as follows: cells. The class given is cell-based. To be noted: Homo sapiens.
The subject of data set [19] is RKO. The data set is described as follows: cells. The class given is cell-based. To be noted: Homo sapiens, RKO.
Data set [20] deals with T5, hGSK3b (Homo sapiens, UniProt P49841).
T5 construct: purchased Cerep (LANCE kinase assay platform, contract assay)
Briefly: Cerep LANCE kinase assay hGSK3b (S1 assay 34). Conditions: kinase assay; read-out: GSK3b. Type of data set: biochemical.

In data set [21] the test system is Colo320. The data set is described as follows: cells. Type of data set: cell-based. To be noted: Homo sapiens.
The test system of data set [22] is SUR2/Kir6.2. To be noted: read-out: SUR2/Kir6.2 inhibition IC50; cited from earlier work.
In data set [23] the test system is tonic K+ channel activity in INS-1E cells. Briefly: cells. Type of data set: cell-based, rat. Conditions: Rattus norvegicus, INS-1E, read-out: K+ channel assay IC50.
[24] abbreviates: DLD-1, 72 h, read-out: DLD-1 viab. IC50.
[25] abbreviates: HCT-116, 72 h, read-out: HCT-116 viab. IC50.
[26] abbreviates: Rattus norvegicus, INS-1E, read-out: Ins. sec. EC50.
Setting [27] is: SW480, 72 h, read-out: SW480 viab. IC50.
Where [28] appears, read: NCI-H716, read-out: GLP1 sec. EC50.
Where [29] appears, read: HCT-116, 72 h, read-out: HCT-116 (GSK3β) viab. IC50.

Structures are written as SMILES. Read-outs that look alike come from different tables or passages of the source.

T3 sequence (P36888 27-993): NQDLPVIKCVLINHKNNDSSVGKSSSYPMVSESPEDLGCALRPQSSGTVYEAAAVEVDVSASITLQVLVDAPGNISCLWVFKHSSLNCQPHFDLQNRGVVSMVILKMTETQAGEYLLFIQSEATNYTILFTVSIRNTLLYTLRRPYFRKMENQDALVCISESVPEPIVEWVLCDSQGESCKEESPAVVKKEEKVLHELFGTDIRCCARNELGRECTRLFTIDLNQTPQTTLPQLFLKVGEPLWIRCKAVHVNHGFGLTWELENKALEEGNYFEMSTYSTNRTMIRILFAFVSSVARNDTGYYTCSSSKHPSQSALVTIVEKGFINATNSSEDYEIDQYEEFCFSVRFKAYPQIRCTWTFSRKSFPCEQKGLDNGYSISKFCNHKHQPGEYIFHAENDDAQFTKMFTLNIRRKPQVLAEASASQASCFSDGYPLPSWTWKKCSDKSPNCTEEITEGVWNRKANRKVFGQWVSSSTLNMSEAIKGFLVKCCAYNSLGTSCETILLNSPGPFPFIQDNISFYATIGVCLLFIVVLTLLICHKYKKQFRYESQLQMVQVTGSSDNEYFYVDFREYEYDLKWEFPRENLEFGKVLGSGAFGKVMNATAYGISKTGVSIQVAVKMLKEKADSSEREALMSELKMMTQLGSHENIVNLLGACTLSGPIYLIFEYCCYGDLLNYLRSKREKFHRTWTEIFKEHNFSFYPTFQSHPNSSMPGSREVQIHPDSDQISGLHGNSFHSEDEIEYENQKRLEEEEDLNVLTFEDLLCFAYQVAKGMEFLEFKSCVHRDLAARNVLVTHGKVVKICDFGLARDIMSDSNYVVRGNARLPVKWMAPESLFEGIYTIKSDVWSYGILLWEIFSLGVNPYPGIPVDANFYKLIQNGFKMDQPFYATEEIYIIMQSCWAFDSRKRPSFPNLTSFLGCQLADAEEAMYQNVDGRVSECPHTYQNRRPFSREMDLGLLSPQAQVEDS
T5 sequence (P49841 whole entry): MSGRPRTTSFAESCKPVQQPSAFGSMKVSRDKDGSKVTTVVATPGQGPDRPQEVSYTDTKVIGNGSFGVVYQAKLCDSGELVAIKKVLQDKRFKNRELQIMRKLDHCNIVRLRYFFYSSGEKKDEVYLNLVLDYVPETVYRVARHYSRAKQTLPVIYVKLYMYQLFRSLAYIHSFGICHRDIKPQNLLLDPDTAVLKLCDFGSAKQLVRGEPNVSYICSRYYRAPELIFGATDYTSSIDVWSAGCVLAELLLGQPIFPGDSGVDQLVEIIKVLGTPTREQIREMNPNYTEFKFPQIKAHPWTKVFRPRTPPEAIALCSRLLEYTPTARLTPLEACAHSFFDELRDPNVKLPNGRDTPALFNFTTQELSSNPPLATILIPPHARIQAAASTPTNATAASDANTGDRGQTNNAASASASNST
T1 sequence (O60674 whole entry): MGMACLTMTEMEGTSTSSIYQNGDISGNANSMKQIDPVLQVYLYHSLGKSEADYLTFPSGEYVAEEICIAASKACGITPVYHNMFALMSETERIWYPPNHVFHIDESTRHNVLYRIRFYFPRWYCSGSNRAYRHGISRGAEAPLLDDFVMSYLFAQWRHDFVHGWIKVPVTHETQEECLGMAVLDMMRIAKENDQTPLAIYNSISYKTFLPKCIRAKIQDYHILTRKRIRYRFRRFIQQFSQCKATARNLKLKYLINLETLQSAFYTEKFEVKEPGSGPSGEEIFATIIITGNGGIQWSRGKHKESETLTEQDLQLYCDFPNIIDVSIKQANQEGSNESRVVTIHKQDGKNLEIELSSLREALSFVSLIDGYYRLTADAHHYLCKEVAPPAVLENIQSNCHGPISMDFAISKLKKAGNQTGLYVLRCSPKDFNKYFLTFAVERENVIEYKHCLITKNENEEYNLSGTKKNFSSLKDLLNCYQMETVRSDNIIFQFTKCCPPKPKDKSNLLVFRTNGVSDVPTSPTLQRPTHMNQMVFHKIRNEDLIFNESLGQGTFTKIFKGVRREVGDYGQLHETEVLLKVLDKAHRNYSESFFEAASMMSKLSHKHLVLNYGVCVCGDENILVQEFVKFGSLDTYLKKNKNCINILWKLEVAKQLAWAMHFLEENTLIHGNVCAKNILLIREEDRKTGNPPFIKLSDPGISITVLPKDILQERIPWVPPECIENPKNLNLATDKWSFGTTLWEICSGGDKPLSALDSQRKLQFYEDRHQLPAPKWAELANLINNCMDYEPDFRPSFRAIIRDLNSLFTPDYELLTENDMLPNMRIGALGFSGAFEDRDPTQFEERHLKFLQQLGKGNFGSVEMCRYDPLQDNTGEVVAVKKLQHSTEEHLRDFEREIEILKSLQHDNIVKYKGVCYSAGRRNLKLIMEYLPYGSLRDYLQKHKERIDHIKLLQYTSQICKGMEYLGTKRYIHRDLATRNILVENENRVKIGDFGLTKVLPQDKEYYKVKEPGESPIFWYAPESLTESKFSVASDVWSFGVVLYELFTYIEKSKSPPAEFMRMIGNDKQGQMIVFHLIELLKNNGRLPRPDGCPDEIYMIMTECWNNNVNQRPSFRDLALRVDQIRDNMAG
T4 sequence (P23443 whole entry): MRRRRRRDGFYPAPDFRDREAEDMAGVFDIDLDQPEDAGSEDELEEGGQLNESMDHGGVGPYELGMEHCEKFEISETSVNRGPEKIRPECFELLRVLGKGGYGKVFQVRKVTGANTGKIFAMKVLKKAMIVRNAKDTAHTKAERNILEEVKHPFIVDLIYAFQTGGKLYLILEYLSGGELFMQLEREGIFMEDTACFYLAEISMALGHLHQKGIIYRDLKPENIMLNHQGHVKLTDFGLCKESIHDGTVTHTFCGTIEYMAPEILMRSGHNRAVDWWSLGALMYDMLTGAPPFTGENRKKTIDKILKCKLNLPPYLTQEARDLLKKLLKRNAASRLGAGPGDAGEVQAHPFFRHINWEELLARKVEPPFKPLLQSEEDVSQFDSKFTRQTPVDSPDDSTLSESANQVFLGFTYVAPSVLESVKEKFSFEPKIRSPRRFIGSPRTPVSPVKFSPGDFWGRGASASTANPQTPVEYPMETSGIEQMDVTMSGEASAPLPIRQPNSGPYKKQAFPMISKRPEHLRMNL
T2 sequence (P35968 20-1356): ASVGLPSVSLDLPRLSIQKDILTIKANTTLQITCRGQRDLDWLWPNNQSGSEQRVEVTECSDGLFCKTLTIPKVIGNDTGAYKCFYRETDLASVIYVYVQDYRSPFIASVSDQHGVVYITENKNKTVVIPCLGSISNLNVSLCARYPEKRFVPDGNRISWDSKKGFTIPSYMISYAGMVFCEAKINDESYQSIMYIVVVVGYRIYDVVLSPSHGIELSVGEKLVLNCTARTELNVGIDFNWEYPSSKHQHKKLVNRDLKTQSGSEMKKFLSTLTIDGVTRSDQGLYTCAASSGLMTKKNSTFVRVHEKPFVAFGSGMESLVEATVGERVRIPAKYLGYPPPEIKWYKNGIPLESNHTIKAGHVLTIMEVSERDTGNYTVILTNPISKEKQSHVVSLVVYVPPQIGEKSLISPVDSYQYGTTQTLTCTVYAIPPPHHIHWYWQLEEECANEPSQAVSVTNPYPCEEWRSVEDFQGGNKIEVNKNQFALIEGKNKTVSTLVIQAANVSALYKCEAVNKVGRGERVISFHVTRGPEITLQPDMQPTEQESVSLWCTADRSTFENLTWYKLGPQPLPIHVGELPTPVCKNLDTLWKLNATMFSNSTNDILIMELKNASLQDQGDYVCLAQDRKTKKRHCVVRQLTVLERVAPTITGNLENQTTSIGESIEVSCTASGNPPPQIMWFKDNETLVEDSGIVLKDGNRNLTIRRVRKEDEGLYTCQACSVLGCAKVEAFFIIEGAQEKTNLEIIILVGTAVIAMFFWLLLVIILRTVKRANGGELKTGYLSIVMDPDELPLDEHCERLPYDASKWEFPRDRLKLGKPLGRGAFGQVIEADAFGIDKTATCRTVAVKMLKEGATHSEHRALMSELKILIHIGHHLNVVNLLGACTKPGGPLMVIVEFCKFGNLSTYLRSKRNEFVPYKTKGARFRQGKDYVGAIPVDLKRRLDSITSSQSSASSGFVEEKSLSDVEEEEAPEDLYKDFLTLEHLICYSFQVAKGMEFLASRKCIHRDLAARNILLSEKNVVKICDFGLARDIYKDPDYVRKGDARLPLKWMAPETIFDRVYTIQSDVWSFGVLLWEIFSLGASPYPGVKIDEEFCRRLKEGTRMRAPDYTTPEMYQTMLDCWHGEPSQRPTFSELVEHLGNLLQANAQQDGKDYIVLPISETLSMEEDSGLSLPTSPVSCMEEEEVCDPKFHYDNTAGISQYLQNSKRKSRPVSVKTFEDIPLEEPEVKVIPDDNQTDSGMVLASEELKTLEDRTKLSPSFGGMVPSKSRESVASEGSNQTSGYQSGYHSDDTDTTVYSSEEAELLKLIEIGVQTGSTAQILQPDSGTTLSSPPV

`N[C@@H](Cc1ccc(N(CCCl)CCCl)cc1)C(=O)O` [Melphalan]: the IC50 in [1] (basal, DLD-1, read-out: Basal_Viability ATP DLD-1) is more than 20000 nM; in data set [3] (HCT-116, basal, HCT116, read-out: Basal_Viability ATP HCT116), more than 20000 nM; in data set [7] (basal, SW480, read-out: Basal_Viability ATP SW480) it was more than 20000 nM; in data set [9] (HCT-116, HCT116 pretreated with GSK3b inhibitor, read-out: GSK3b inh pretreated_Viability ATP HCT116), 15400 nM. The EC50 in data set [2] (C2C12, read-out: Wnt Pathway) was more than 10000 nM; in [5] (Rattus norvegicus, INS-1E; read-out: Insulin Secretion) it was more than 10000 nM; in data set [6] (S2 Table, 20 = no response at highest concentration) it was 5360 nM; in data set [8] (NCI-H716, read-out: GLP 1 Secretion) it was more than 10000 nM. Moreover, the “Adjusted Z-Score” value in [4] (AE BONE DISORDER) is on record as -3.0915; in data set [4] (AE OSTEOMYELITIS), -3.729; in [4] (AE OSTEONECROSIS OF JAW) it was -3.716; in data set [4] (AE OSTEONECROSIS) it was -3.771. In addition, the “# of Specific AE Occurrence With Drug A With Drug B” value is recorded as 0 in [4] (AE BONE DISORDER), 9 in data set [4] (AE OSTEOMYELITIS), 17 in data set [4] (AE OSTEONECROSIS OF JAW) and 1 in data set [4] (AE OSTEONECROSIS). Further, the “# of Specific AE Occurrence With Drug A Without Drug B” value in data set [4] (AE BONE DISORDER) is reported as 731; in data set [4] (AE OSTEOMYELITIS) it was 479; in data set [4] (AE OSTEONECROSIS OF JAW), 557; in [4] (AE OSTEONECROSIS), 786.

For `COCc1c(C(C)C)nc(C(C)C)c(/C=C/[C@@H](O)C[C@@H](O)CC(=O)O)c1-c1ccc(F)cc1` [cerivastatin, reference compound], the “cytotoxicity IC50 relative to IC50 for inhibition of endothelial cord formation” value in data set [10] is reported as 2–3 fold. The IC50 is more than 20000 nM in data set [11]; more than 20000 nM in [13]; 2500 nM in data set [1] (setting [24]); 2510 nM in data set [1] (DLD-1, read-out: Basal_Viability ATP DLD-1); more than 20000 nM in data set [14]; more than 20000 nM in data set [15]. Also, the IC50 is 240 nM in [3] (setting [25]); 240 nM in [3] (HCT-116, read-out: Basal_Viability ATP HCT116); 89 nM in data set [16] (read-out: Anti-Angio IC50); 89.4 nM in data set [16] (read-out: Anti-Angiogenesis); 140 nM in data set [7] (setting [27]); 143 nM in data set [7] (SW480, read-out: Basal_Viability ATP SW480). Moreover, the IC50 in [17] (SNU-C1, 72 h, read-out: SNU-C1 viab. IC50) was found to be 1900 nM; in [17] (SNU-C1, read-out: Basal_Viability ATP SNU-C1), 1870 nM; in [18] (HT-29, 72 h, read-out: HT-29 viab. IC50), 1200 nM; in data set [18] (HT-29, read-out: Basal_Viability ATP HT-29) it was 1210 nM; in data set [19] (72 h, read-out: RKO viab. IC50) it was 1000 nM; in data set [19] (read-out: Basal_Viability ATP RKO) it was 1010 nM. Moreover, the IC50 in data set [9] (setting [29]) is 53 nM; in data set [9] (HCT-116, read-out: GSK3b inh pretreated_Viability ATP HCT116) it was 52.9 nM; in [20], more than 20000 nM; in data set [21] (COLO 320, 72 h, read-out: Colo320 viab. IC50), 1900 nM; in data set [21] (COLO 320, read-out: Basal_Viability ATP Colo 320), 1920 nM. Moreover, in data set [12], the “fold potency difference KRAS mutant lines SW480 and HCT116 vs. KRAS wild-type lines Colo320 and SNU-C1” value is 5–10 fold. Moreover, the EC50 is 19900 nM in data set [2] (C2C12, read-out: Wnt pot. EC50); more than 10000 nM in data set [5] (setting [26]); more than 10000 nM in [6]; more than 10000 nM in data set [8] (setting [28]).

As for `CCCNCC(O)COc1ccccc1C(=O)CCc1ccccc1` (stereo not drawn) [propafenone, reference compound], the IC50 in data set [1] (setting [24]) was more than 20000 nM; in [22], 2200 nM; in [3] (setting [25]), more than 20000 nM; in [16] (read-out: Anti-Angio IC50), more than 10000 nM; in [7] (setting [27]) it was more than 20000 nM; in data set [9] (setting [29]), more than 20000 nM. The IC50 in data set [23] was 5400 nM. Also, the EC50 was 4900 nM in data set [5] (setting [26]); 4920 nM in data set [5] (Rattus norvegicus, INS-1E, read-out: Insulin Secretion); more than 10000 nM in data set [6]; more than 10000 nM in data set [8] (setting [28]).
